Measured values reported in patent publication US4379917A, “6"-(Substituted)-apramycin antibiotic derivatives and intermediates and starting materials therefor” (Eli Lilly and Company, priority 1981, dated 1983).
≈ marks a conversion by molar mass, not a printed value. Like-named read-outs stand apart in the source and are kept apart here.

Tests used:
[1] = system: Pseudomonas aeruginosa X528; experiment: MIC by standard agar dilution test; type: cell-based
[2] = system: Pseudomonas aeruginosa PI23; experiment: MIC by standard agar dilution test; type: cell-based
Salmonella typhimurium = experiment: MIC by standard agar dilution test; type: cell-based; conditions: Salmonella enterica, read-out: Minimum Inhibitory Concentration
[3] = system: Pseudomonas aeruginosa X48; experiment: MIC by standard agar dilution test; type: cell-based; conditions: X48, read-out: Minimum Inhibitory Concentration
[4] = system: Pseudomonas aeruginosa X239; experiment: MIC by standard agar dilution test; type: cell-based
[5] = system: Pseudomonas aeruginosa Ps15; experiment: MIC by standard agar dilution test; type: cell-based; conditions: PS15, read-out: Minimum Inhibitory Concentration
[6] = system: Pseudomonas aeruginosa SF-2; experiment: MIC by standard agar dilution test; type: cell-based
[7] = system: Bordetella bronchiseptica 16; experiment: MIC by standard agar dilution test; type: cell-based
Erwinia amylovora = experiment: MIC by standard agar dilution test; type: cell-based; conditions: Table II, read-out: Minimum Inhibitory Concentration
Source text: (§1) The antibacterial activity of the antibiotic compounds of this invention is illustrated by the following in vitro and in vivo test data obtained with representative compounds. In Tables I and II the minimum inhibitory concentration (MIC) for representative compounds against a wide range of gram-positive and gram-negative bacteria is presented. The MIC values were obtained by the standard agar dilution test.

[8] = system: Staphylococcus aureus 3074; experiment: MIC by standard agar dilution test; type: cell-based; conditions: Table II, read-out: Minimum Inhibitory Concentration
Source text: as §1

[9] = system: Klebsiella pneumoniae KL2; experiment: MIC by standard agar dilution test; type: cell-based; conditions: KL2, read-out: Minimum Inhibitory Concentration
Escherichia coli EC14 = experiment: MIC by standard agar dilution test; type: cell-based; conditions: EC14, read-out: Minimum Inhibitory Concentration
Salmonella typhosa SA12 = experiment: MIC by standard agar dilution test; type: cell-based; conditions: Salmonella enterica, read-out: Minimum Inhibitory Concentration
[10] = system: Staphylococcus aureus 3055; experiment: MIC by standard agar dilution test; type: cell-based; conditions: Staphylococcus aureus, 3055, read-out: Minimum Inhibitory Concentration
[11] = system: Citrobacter freundii CF17; experiment: MIC by standard agar dilution test; type: cell-based
[12] = system: Klebsiella pneumoniae KL14; experiment: MIC by standard agar dilution test; type: cell-based; conditions: KL14, read-out: Minimum Inhibitory Concentration
[13] = system: Streptococcus faecalis X66; experiment: MIC by standard agar dilution test; type: cell-based; conditions: Enterococcus faecalis, X66; Table II; agar dilution; read-out: Minimum Inhibitory Concentration
[14] = system: Pseudomonas aeruginosa 4276; experiment: MIC by standard agar dilution test; type: cell-based
[15] = system: Pseudomonas aeruginosa Ps9; experiment: MIC by standard agar dilution test; type: cell-based
Serratia marcescens SE3 = experiment: MIC by standard agar dilution test; type: cell-based
[16] = system: Pseudomonas solanacearum X185; experiment: microbe, parasite or virus in culture; type: cell-based; conditions: Ralstonia solanacearum, X185, read-out: Minimum Inhibitory Concentration
[17] = system: Enterobacter aerogenes EB17; experiment: MIC by standard agar dilution test; type: cell-based; conditions: Klebsiella aerogenes, EB17, read-out: Minimum Inhibitory Concentration
Proteus morganii PR2 = experiment: MIC by standard agar dilution test; type: cell-based; conditions: Morganella morganii, PR2; Table 1; agar dilution; read-out: Minimum Inhibitory Concentration
[18] = system: Enterobacter cloacae EB24; experiment: MIC by standard agar dilution test; type: cell-based; conditions: EB24, read-out: Minimum Inhibitory Concentration
Proteus inconstans PV25 = experiment: MIC by standard agar dilution test; type: cell-based; conditions: Providencia alcalifaciens, PV25, read-out: Minimum Inhibitory Concentration
Proteus morganii PR15 = experiment: MIC by standard agar dilution test; type: cell-based; conditions: Morganella morganii, PR15; Table II; agar dilution; read-out: Minimum Inhibitory Concentration
[19] = system: Pseudomonas aeruginosa Ps25; experiment: MIC by standard agar dilution test; type: cell-based; conditions: PS25, read-out: Minimum Inhibitory Concentration
[20] = system: Enterobacter aerogenes EB6; experiment: MIC by standard agar dilution test; type: cell-based; conditions: Klebsiella aerogenes, EB6, read-out: Minimum Inhibitory Concentration
[21] = system: Enterobacter cloacae EN453; experiment: MIC by standard agar dilution test; type: cell-based; conditions: EN453, read-out: Minimum Inhibitory Concentration
Proteus morganii PR1 = experiment: MIC by standard agar dilution test; type: cell-based; conditions: Morganella morganii, PR1, read-out: Minimum Inhibitory Concentration
Serratia marcescens SE2 = experiment: MIC by standard agar dilution test; type: cell-based; conditions: SE2, read-out: Minimum Inhibitory Concentration
Serratia marcescens X99 = experiment: MIC by standard agar dilution test; type: cell-based; conditions: X99, read-out: Minimum Inhibitory Concentration
[22] = system: Pseudomonas aeruginosa X239; experiment: Subcutaneous therapy of Pseudomonas aeruginosa X239 infections in mice; type: in vivo; conditions: X239, sc, 2 subcutaneous doses at 1 and 5 hours post infection, dose to protect 50 percent of test animals, read-out: Effective Dose (ED50)
Protocol: Table III illustrates the effective dose (ED50, effective dose to protect 50 percent of the test animals) for representative compounds of this invention against an experimental bacterial infection in mice. | *mg/kg × 2 subcutaneous doses at 1 and 5 hours post infections The ED50 values were determined as described by W. E. Wick et al., Journal of Bacteriolocy, 81 [No. 2], 233-235 (1961).

[23] = X239, read-out: Minimum Inhibitory Concentration, Table II
[24] = SE3, read-out: Minimum Inhibitory Concentration, Table 1
[25] = SE3, read-out: Minimum Inhibitory Concentration, Table II

| SMILES | MIC [3] [µg/mL] | MIC [4, 23] [µg/mL] | MIC [5] [µg/mL] | MIC (Erwinia amylovora) [µg/mL] | MIC [8] [µg/mL] | MIC [9] [µg/mL] | MIC (Escherichia coli EC14) [µg/mL] | MIC (Salmonella typhosa SA12) [µg/mL] | MIC [10] [µg/mL] | MIC [12] [µg/mL] | MIC [13] [µg/mL] | MIC (Serratia marcescens SE3; [24]) [µg/mL] | MIC (Serratia marcescens SE3; [25]) [µg/mL] | MIC [16] [µg/mL] | MIC [17] [µg/mL] | MIC (Proteus morganii PR2) [µg/mL] | MIC [18] [µg/mL] | MIC (Proteus inconstans PV25) [µg/mL] | MIC (Proteus morganii PR15) [µg/mL] | MIC [19] [µg/mL] | further results |
| --- | --- | --- | --- | --- | --- | --- | --- | --- | --- | --- | --- | --- | --- | --- | --- | --- | --- | --- | --- | --- | --- |
| CN[C@@H]1[C@@H](O[C@H]2O[C@H](CCl)[C@@H](N)[C@H](O)[C@H]2O)O[C@H]2C[C@@H](N)[C@@H](O[C@H]3[C@H](O)[C@@H](O)[C@H](N)C[C@@H]3N)O[C@@H]2[C@@H]1O [Test Compound 3, 6"-Chloro-6"-Deoxyapramycin] | 16 (≈ 28.7 µM) | 2 (≈ 3.58 µM) | 16 (≈ 28.7 µM) | 1 (≈ 1.79 µM) | 1 (≈ 1.79 µM) | 4 (≈ 7.17 µM) | 16 (≈ 28.7 µM) | 2 (≈ 3.58 µM) | 1 (≈ 1.79 µM) | 2 (≈ 3.58 µM) | 8 (≈ 14.3 µM) | 4 (≈ 7.17 µM) | 16 (≈ 28.7 µM) | 2 (≈ 3.58 µM) | 16 (≈ 28.7 µM) | 32 (≈ 57.3 µM) | 4 (≈ 7.17 µM) | 4 (≈ 7.17 µM) | 8 (≈ 14.3 µM) | 16 (≈ 28.7 µM) | MIC ([1]; X528, Table 1, agar dilution, read-out: Minimum Inhibitory Concentration): 32 µg/mL (≈ 57.3 µM); MIC ([2]; PI23, Table 1, agar dilution, read-out: Minimum Inhibitory Concentration): > 128 µg/mL; MIC (Salmonella typhimurium; Table II, agar dilution): 8 µg/mL (≈ 14.3 µM); MIC ([4]; X239, Table 1, read-out: Minimum Inhibitory Concentration): 8 µg/mL (≈ 14.3 µM); MIC ([6]; SF2, read-out: Minimum Inhibitory Concentration): 16 µg/mL (≈ 28.7 µM); MIC ([7]; Bordetella bronchiseptica, 16, Table II, agar dilution, read-out: Minimum Inhibitory Concentration): 8 µg/mL (≈ 14.3 µM); MIC ([11]; CF17, read-out: Minimum Inhibitory Concentration): 4 µg/mL (≈ 7.17 µM); MIC ([14]; Pseudomonas aeruginosa, 4276, read-out: Minimum Inhibitory Concentration): 16 µg/mL (≈ 28.7 µM); MIC ([15]; PS9, Table 1, agar dilution, read-out: Minimum Inhibitory Concentration): 32 µg/mL (≈ 57.3 µM); MIC [20]: 4 µg/mL (≈ 7.17 µM); MIC [21]: 4 µg/mL (≈ 7.17 µM); MIC (Proteus morganii PR1): 4 µg/mL (≈ 7.17 µM); MIC (Serratia marcescens SE2): 4 µg/mL (≈ 7.17 µM); MIC (Serratia marcescens X99): 4 µg/mL (≈ 7.17 µM) |
| CN[C@@H]1[C@@H](O[C@H]2O[C@H](C)[C@@H](N)[C@H](O)[C@H]2O)O[C@H]2C[C@@H](N)[C@@H](O[C@H]3[C@H](O)[C@@H](O)[C@H](N)C[C@@H]3N)O[C@@H]2[C@@H]1O [Test Compound 4, 6"-Deoxyapramycin] | 4 (≈ 7.64 µM) | 2 (≈ 3.82 µM) | 4 (≈ 7.64 µM) | 2 (≈ 3.82 µM) | 1 (≈ 1.91 µM) | 4 (≈ 7.64 µM) | 16 (≈ 30.6 µM) | 4 (≈ 7.64 µM) | 2 (≈ 3.82 µM) | 4 (≈ 7.64 µM) | 8 (≈ 15.3 µM) | 4 (≈ 7.64 µM) | 16 (≈ 30.6 µM) | 4 (≈ 7.64 µM) | 4 (≈ 7.64 µM) | 8 (≈ 15.3 µM) | 4 (≈ 7.64 µM) | 2 (≈ 3.82 µM) | 8 (≈ 15.3 µM) | 4 (≈ 7.64 µM) | ED50 [22]: 10.9 mg/kg; MIC ([1]; X528, read-out: Minimum Inhibitory Concentration): 16 µg/mL (≈ 30.6 µM); MIC ([2]; PI23, read-out: Minimum Inhibitory Concentration): > 128 µg/mL; MIC (Salmonella typhimurium): 16 µg/mL (≈ 30.6 µM); MIC ([4]; X239, read-out: Minimum Inhibitory Concentration, Table 1): 4 µg/mL (≈ 7.64 µM); MIC ([6]; SF2, Table 1, agar dilution, read-out: Minimum Inhibitory Concentration): 8 µg/mL (≈ 15.3 µM); MIC ([7]; Bordetella bronchiseptica, 16, read-out: Minimum Inhibitory Concentration): 16 µg/mL (≈ 30.6 µM); MIC ([11]; CF17, Table II, agar dilution, read-out: Minimum Inhibitory Concentration): 8 µg/mL (≈ 15.3 µM); MIC ([14]; Pseudomonas aeruginosa, 4276, Table 1, agar dilution, read-out: Minimum Inhibitory Concentration): 8 µg/mL (≈ 15.3 µM); MIC ([15]; PS9, read-out: Minimum Inhibitory Concentration): 16 µg/mL (≈ 30.6 µM); MIC [20]: 4 µg/mL (≈ 7.64 µM); MIC [21]: 4 µg/mL (≈ 7.64 µM); MIC (Proteus morganii PR1): 4 µg/mL (≈ 7.64 µM); MIC (Serratia marcescens SE2): 4 µg/mL (≈ 7.64 µM); MIC (Serratia marcescens X99): 2 µg/mL (≈ 3.82 µM) |
